The values below come from US20090117607A1, “Methods For Differential Detection Of Hypoxic Tissue From A Tissue Sample Of A Mammalian Subject” (priority 2007, published 2009).

In one series the test system is HNSCC hypoxic tumors. The following applies: 45 HNSCC patients, adjuvant cisplatin with tirapazamine; cited from earlier work.
For the next series, the system named is hypoxic cells. As to conditions: cited from earlier work.
Series [1] deals with head and neck squamous cell carcinoma (HNSCC) tumor tissue. Kind of series: Quantitative fluorescence immunohistochemical analysis of EF5 binding in HNSCC tumor sections of patients. Also on record: key to Maximum CF95 Mean: % of CRB (maximal EF3 binding), scale 0-100%. The format is in vivo, human. Here is the method:
EF5 Administration. The National Cancer Institute, Division of Cancer Treatment supplied EF5 in 100 mL vials containing an aqueous solution of 3 mg/mL EF5 also containing 5% dextrose and 2.4% ethanol. This EF5 solution was administered through a peripheral IV catheter, 24-48 hours before surgery at a rate no greater than 350 mL/hr and to a total dose of 9-21 mg/kg. Blood samples for drug levels were obtained before and 1 hour after the completion of drug administration, and at the time of surgery. Calculation of drug time/dose concentration (area under the curve, AUC) allowed the absolute EF5 tissue binding level to be corrected for variations in drug dose and exposure time between patients. Koch, et al., Cancer Chemother. Pharmacol., 2001, 48, 177-187.
Tissue Acquisition and processing for EF5 Binding. 24-48 hours after completion of drug administration, tumors were resected or biopsied and placed in sterile, iced EXCELL 610 medium (JRH Biosciences, Lenexa, Kans.). In collaboration with the pathologist, tissue samples deemed unnecessary for clinical diagnosis were taken to the lab for processing and analysis.
IHC staining methods and quantitative fluorescence microscopy of EF5 in in situ tumor sections and EF3 in tissue cubes for cube reference binding (CRB) were performed as reported previously. Evans, et al., Cancer Res., 2004, 64, 1886-1892. CRB determination is an in vitro technique where tissue cubes are incubated in 200 μM EF3, a sister drug of EF5, under controlled hypoxic conditions for 3 hours. The goal of this procedure was to determine the maximum level of EF3 binding possible for each patient's tumor. This technique allowed normalization of the in situ EF5 binding to each tumor's maximum binding value after correction for the AUC. Koch, et al., Cancer Chemother. Pharmacol., 2001, 48, 177-187. These values were used to calculate the maximum and average ‘% CRB’ value for each tumor, as described previously and briefly below. Evans, et al., Cancer Res., 2000, 60, 2018-2024. Thus, EF5 binding values for each tumor tissue are reported on a scale of 0-100% allowing for comparisons within and between tumors.
Quantitative Image analysis. The quantitative analysis of tumor sections stained for EF3/EF5 has been previously described. Evans, J. Invest. Derm., 2006; Evans, et al., Int. J. Radiat. Oncol., Biol., Phys., 2001, 49, 587-596; Busch, et al., Adv Exp Med. Biol., 2003, 510, 37-43. Briefly, tissue sections were counterstained with Hoechst 33342 to identify the location of intact nuclei. These images were used to create bitmaps in order to generate binary masks of viable tissue regions. Masked regions of each section were analyzed for EF5-dependent immunofluorescence intensity using routines written in MatLab (The MathWorks, Inc., Natick, Mass.). EF5 intensity values of these regions were corrected for tissue section thickness, camera exposure time, relative lamp intensity, EF5 drug exposure (AUC) and CRB. Evans, et al., Cancer Res., 2000, 60, 2018-2024; Evans, et al., Int. J. Radiat. Oncol., Biol., Phys., 2001, 49, 587-596; Evans, et al, Clin. Cancer Res., 2004, 10, 8177-8184; Koch, et al., Cancer Chemother. Pharmacol., 2001, 48, 177-187. Data were then summarized by generating histograms of all positive pixels in the masked image, which were then converted into a cumulative frequency plot. The number of pixels at or below a given binding level can be identified from this plot. For example, CF95=20% would mean that 95% of the EF5 values in the image were at or below 20% of CRB. Terms to describe tissue oxygenation based on EF5 studies have been approximated by data from in vitro studies (Table 1). Koch, Method Enzymol., 2002, 352, 3-31. Normoxic conditions correspond to a CF95≈1%; for modestly/mildly hypoxic conditions, CF95≈3%; for moderately hypoxic conditions, CF95≈10%; for severely hypoxic conditions, CF95≈30%, and for anoxia, the CF95100%. The pO2 corresponding to these descriptive terms is found in Table 1. […]

Series [2] in a line: EF5-related toxicity in patients after IV EF5 administration. In kind it is in vivo, human. As to conditions: 22 HNSCC patients. The source says: Human Subjects. The Institutional Review Board of the University of Pennsylvania Clinical Trials and Scientific Monitoring Committee at the University of Pennsylvania Abramson Cancer Center and the Cancer Therapeutics Evaluation Program of the National Cancer Institute approved this prospective trial of EF5. All patients signed an approved consent form for both the study and for privacy (HIPPA). Patients of all ethnic and gender groups were included. Eligible patients were those undergoing resection or biopsy of a HNSCC as clinically indicated. Exclusion criteria included patients with a history of grade III or IV peripheral neuropathy, pregnant or nursing patients and patients <18 years old. Coleman, et al., Int. J. Radiat. Oncol., Biol., Phys., 1990, 18, 389-393. EF5 Administration. The National Cancer Institute, Division of Cancer Treatment supplied EF5 in 100 mL vials containing an aqueous solution of 3 mg/mL EF5 also containing 5% dextrose and 2.4% ethanol. This EF5 solution was administered through a peripheral IV catheter, 24-48 hours before surgery at a rate no greater than 350 mL/hr and to a total dose of 9-21 mg/kg. Blood samples for drug levels were obtained before and 1 hour after the completion of drug administration, and at the time of surgery. […]

The next series relates to HNSCC. As to conditions: meta-analysis of trials; cited from earlier work.

Several values for one entry are separate records, joined by “and”; a condition that tells them apart may be missing. Identical values can stand only once. Like-named read-outs stand apart in the source and are kept apart here.

As to `Nc1n[n+]([O-])c2ccccc2[n+]1[O-]` [tirapazamine], the “Outcome (local-regional failure) of patients with hypoxic tumors” value with HNSCC hypoxic tumors is reported as “did as well as those with oxic tumors”.
Take `O=C(Cn1ccnc1[N+](=O)[O-])NCC(F)(F)C(F)(F)F` [EF5]: the “Maximum EF5 binding (%)” value with hypoxic cells (Anoxia, pO2 0%) is 100%; in the series on hypoxic cells (Moderate hypoxia, pO2 0.5% (3.8 mm Hg)), 10%; in the series on hypoxic cells (Modest (mild) hypoxia, pO2 2.5% (19 mm Hg)), 3%; in the series on hypoxic cells (Normoxia, pO2 10% (76 mm Hg)), 1%; in the series with hypoxic cells (Severe hypoxia, pO2 0.1% (0.76 mm Hg)), 30%. The “Maximum CF95 Mean” value in series [1] (Age <60 y (11)) stood at 25.66; in series [1] (Age ≧60 y (11)) it was 21.11; in series [1] (All patients (22)), 23.38; in series [1] (Differentiation: Moderate (10)), 20.00; in series [1] (Differentiation: Moderate to poor, poor (7)), 35.87; in series [1] (Differentiation: Well, well to moderate (5)), 12.65. The “Maximum CF95 Mean” value in series [1] (Gender: Men (18)) was determined as 26.74; in series [1] (Gender: Women (4)), 8.27; in series [1] (Nodal stage N0-N1 (15)), 17.96; in series [1] (Nodal stage N2-N3 (7)), 35.00. Also, the “EF5 binding average CF95” value in series [1] (individual patient tumor, average of all tissue sections, biopsy 24-48 h after EF5 IV 9-21 mg/kg) is 0.8 % CRB and 0.9 % CRB and 1.9 % CRB and 1.1 % CRB and 4.2 % CRB and 5.6 % CRB and 6.2 % CRB and 6.1 % CRB and 6.4 % CRB and 10.8 % CRB and 16.0 % CRB and 19.6 % CRB and 18.7 % CRB and 12.5 % CRB and 26.0 % CRB and 14.2 % CRB and 23.0 % CRB and 36.9 % CRB and 38.5 % CRB and 34.5 % CRB and 0.4 % CRB and 1.3 % CRB. In addition, the “EF5 binding maximum CF95” value in series [1] (individual patient tumor, brightest binding of all tissue sections, biopsy 24-48 h after EF5 IV 9-21 mg/kg) was 1.4 % CRB (2×) and 2.8 % CRB and 6.0 % CRB and 7.9 % CRB and 8.2 % CRB and 8.9 % CRB and 10.0 % CRB and 16.4 % CRB and 17.8 % CRB and 19.4 % CRB and 23.1 % CRB and 25.4 % CRB and 30.7 % CRB and 35.8 % CRB and 36.0 % CRB and 61.7 % CRB and 66.0 % CRB and 66.5 % CRB and 66.6 % CRB and 1.2 % CRB and 1.3 % CRB. In series [2], the “EF5-related grade 1 and 2 toxicity” value was “One patient each experienced EF5-related grade 1 and 2 toxicity”. Also, in series [2] (30 days following EF5 administration), the “EF5-related grade 3 or 4 toxicity” value is on record as “no episodes of EF5-related grade 3 or 4 toxicity”.
Consider `COCC(O)Cn1ccnc1[N+](=O)[O-]` (stereo not drawn) [misonidazole], for which, in the series with HNSCC, the “Effectiveness as hypoxic cell sensitizer” value is recorded as “could be identified in a subset of patients”.
